# Calls of active or inactive are those of the source. No cut-off for these calls is given here.
# Columns and labels:
# MCF7 = experiment: Antiproliferative activity against human MCF7 cells assessed as cell viability at 100 uM incubated for 48 to 72 hrs by MTT assay; format: functional; conditions: time 48-72 hrs, read-out: Activity
# MDA-MB-231 = experiment: Antiproliferative activity against human MDA-MB-231 cells assessed as cell viability at 100 uM incubated for 48 to 72 hrs by MTT assay; format: functional; conditions: time 48-72 hrs, read-out: Activity
# SJSA-1 = experiment: Antiproliferative activity against human SJSA-1 cells assessed as cell viability at 100 uM incubated for 48 to 72 hrs by MTT assay; format: functional; conditions: time 48-72 hrs, read-out: Activity
# HepG2 = experiment: Antiproliferative activity against human HepG2 cells assessed as cell viability at 100 uM incubated for 48 to 72 hrs by MTT assay; format: functional; conditions: time 48-72 hrs, read-out: Activity
# [1] = Cytotoxicity against mouse HT-22 cells assessed as cell viability at 100 uM incubated for 48 to 72 hrs by MTT assay; format: toxicity, cell-based; conditions: time 48-72 hrs, read-out: Activity
# [2] = biological target: T1, von Hippel-Lindau disease tumor suppressor/E3 ubiquitin-protein ligase Mdm2 (Homo sapiens, UniProt Q00987+P40337); experiment: Protac activity at VHL/MDM2 in human MCF7 cells assessed as reduction in MDM2 protein level after 48 hrs by Western blotting analysis; format: cell-based
# [3] = biological target: T1, von Hippel-Lindau disease tumor suppressor/E3 ubiquitin-protein ligase Mdm2; experiment: Protac activity at VHL/MDM2 in human MCF7 cells assessed as upregulation of p53 level at 75 to 105 uM after 48 hrs by Western blotting analysis; format: cell-based; conditions: dose 75-105 µM
# Target sequence in this assay (P40337 whole entry, looked up): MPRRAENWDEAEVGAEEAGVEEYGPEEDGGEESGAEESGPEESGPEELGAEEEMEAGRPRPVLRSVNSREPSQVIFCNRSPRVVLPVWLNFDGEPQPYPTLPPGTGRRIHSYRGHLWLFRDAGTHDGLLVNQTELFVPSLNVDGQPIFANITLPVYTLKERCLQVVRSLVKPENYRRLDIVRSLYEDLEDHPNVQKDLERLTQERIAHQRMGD
# Target sequence in this assay (Q00987 whole entry, looked up): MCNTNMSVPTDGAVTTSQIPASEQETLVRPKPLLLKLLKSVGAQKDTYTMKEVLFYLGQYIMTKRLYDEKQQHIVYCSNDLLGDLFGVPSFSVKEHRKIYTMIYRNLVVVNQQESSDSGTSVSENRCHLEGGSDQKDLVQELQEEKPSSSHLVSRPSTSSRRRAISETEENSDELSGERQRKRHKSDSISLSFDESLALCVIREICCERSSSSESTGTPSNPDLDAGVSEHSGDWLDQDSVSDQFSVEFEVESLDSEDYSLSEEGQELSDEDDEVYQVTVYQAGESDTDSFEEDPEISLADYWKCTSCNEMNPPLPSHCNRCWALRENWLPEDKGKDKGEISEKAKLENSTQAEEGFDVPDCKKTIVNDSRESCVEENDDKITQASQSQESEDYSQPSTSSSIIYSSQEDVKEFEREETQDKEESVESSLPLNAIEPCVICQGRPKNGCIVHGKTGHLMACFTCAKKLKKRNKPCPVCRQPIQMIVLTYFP
# [4] = biological target: T1, von Hippel-Lindau disease tumor suppressor/E3 ubiquitin-protein ligase Mdm2; experiment: Protac activity at VHL/MDM2 in human MCF7 cells assessed as upregulation of p21 level at 75 to 105 uM after 48 hrs by Western blotting analysis; format: cell-based; conditions: dose 75-105 µM
# Target sequence in this assay (P40337 whole entry, looked up): as the sequence (P40337 whole entry, looked up) above
# Target sequence in this assay (Q00987 whole entry, looked up): as the sequence (Q00987 whole entry, looked up) above
# [5] = biological target: T1, von Hippel-Lindau disease tumor suppressor/E3 ubiquitin-protein ligase Mdm2; experiment: Protac activity at VHL/MDM2 in human MCF7 cells assessed as reduction in MDM2 protein level at 100 uM pretreated with MG-132 for 2 hrs followed by compound addition and measured after 48 hrs by Western blotting analysis; format: cell-based
# Target sequence in this assay (P40337 whole entry, looked up): as the sequence (P40337 whole entry, looked up) above
# Target sequence in this assay (Q00987 whole entry, looked up): as the sequence (Q00987 whole entry, looked up) above
# [6] = biological target: E3 ubiquitin-protein ligase Mdm2 (Homo sapiens, UniProt Q00987); experiment: Binding affinity to MDM2 (unknown origin) by SPR assay
# Sequence of E3 ubiquitin-protein ligase Mdm2 (Q00987 whole entry): as the sequence (Q00987 whole entry, looked up) above
structure (smiles),measurement,setting,value
Cc1ncsc1-c1ccc([C@H](C)NC(=O)[C@@H]2C[C@@H](O)CN2C(=O)[C@@H](NC(=O)CCCCc2cn(CCOCCOCCOCCNC(=O)[C@H](C)CC(=O)C[C@@H](C)[C@H]3C[C@H](O)[C@@]4(C)C5=C(C(=O)C[C@]34C)[C@@]3(C)CCC(=O)C(C)(C)[C@@H]3C[C@@H]5O)nn2)C(C)(C)C)cc1,viability at 100 µM,MCF7,24.9%
same,viability at 100 µM,MDA-MB-231,35.4%
same,viability at 100 µM,SJSA-1,69.6%
same,viability at 100 µM,HepG2,90.2%
same,viability at 100 µM,[1],91.8%
same,Activity,[2],Dose-Dependent Effect
same,DC50,[2],100 µM
same,Activity,[3],Active
same,Activity,[4],Active
same,Activity,[5],inactive
same,Kd,[6],32.4 µM
